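Dose response: 5 concentrations. Exposure: 48 h. Format: 96-well plates. Endpoint: linear interpolation; highest concentration if not reached. At the GI50, growth is halved.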 The source made the active and inactive calls. Rule as the data show it: active = GI50 up to about 1.1 µM and inactive = higher.
Tests used:
Test in all cases: NCI tumour cell line growth inhibition, 48 h
[1] = system: LXFL 529
[2] = system: M19-MEL
[3] = system: XF498
[4] = system: DMS-114
[5] = system: DMS-273
[6] = system: SNB-78
[7] = system: RXF 631
[8] = system: KM-20L2
[9] = system: HOP-18

Measured: GI50

O=C1NCCS(=O)(=O)N[C@@H](CC2=CC=CCC2)C(=O)N2CCCC12 (stereo partly drawn)
inactive: [1] > 100 µM | [2] > 100 µM | [3] > 100 µM | [4] > 100 µM | [5] > 100 µM | [6] > 100 µM | [7] > 100 µM | [8] > 100 µM | [9] > 100 µM

CC1(C)COC2(OC1)C1=NS(=O)(=O)CC13CCC2C3(C)C (stereo not drawn)
inactive: [1] > 100 µM | [2] > 100 µM | [3] > 100 µM | [4] > 100 µM | [5] > 100 µM | [6] > 100 µM | [7] > 100 µM | [8] > 100 µM | [9] > 100 µM

— ChEMBL document CHEMBL1201862, “PubChem BioAssay data set” (2004)
